# Source: patent US7972815B2, “Method of producing sugar chain using human G4 polypeptide” (Kyowa Hakko Kirin Co., Ltd., priority 1999, dated 2011)
# Read-outs that look alike come from different tables or passages of the source.
# Assays:
# [1] = target: T1, β1,3-N-acetylglucosaminyl transferase (G4) (Homo sapiens, UniProt Q9Y2A9, R328H); experiment: Substrate specificity of G4 with pyridylaminated oligosaccharides; type: biochemical; details: pyridylaminated substrate 50 μmol/l, 37° C., 14.5 hours, activity on LNnT defined as 100%
# T1 construct: made in house; host or cells: Sf21 insect cells infected with recombinant baculovirus from pVL1393-F2G4
# T1 sequence (Q9Y2A9 38-372 R328H): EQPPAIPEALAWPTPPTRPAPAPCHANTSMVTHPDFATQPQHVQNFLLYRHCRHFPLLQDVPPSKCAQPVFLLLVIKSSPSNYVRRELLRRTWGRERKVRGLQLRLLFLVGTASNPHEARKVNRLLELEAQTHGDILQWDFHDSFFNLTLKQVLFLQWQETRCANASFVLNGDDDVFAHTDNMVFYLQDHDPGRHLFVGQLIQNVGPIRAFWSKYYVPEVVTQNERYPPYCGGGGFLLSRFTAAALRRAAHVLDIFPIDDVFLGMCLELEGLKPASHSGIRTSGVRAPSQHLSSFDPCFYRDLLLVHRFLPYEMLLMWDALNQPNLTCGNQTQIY
# Method: Examination on the substrate specificity of a β1,3-N-acetylglucosaminyl transferase (G4) was carried out by using the FLAG peptide-fused G4 polypeptide produced as a secreted form in Example 10.
# (§1) The method shown in Example 8 was used as the activity measuring method. Specifically, after the reaction at 37° C. for 14.5 hours in 30 μl of an assay solution [200 mmol/l of MOPS (pH 7.5), 20 mmol/l of UDP-GlcNAc (SIGMA), 20 mmol/l of MnCl2, 50 μmol/l of pyridylaminated sugar chain substrate and 15 μl of the above eluate], products were detected by HPLC. As substrates, LNnT, lacto-N-tetraose (Galβ1-3GlcNAcβ1-3Galβ1-4Glc, hereinafter referred to as “LNT”), lacto-N-fucopentaose II (Galβ1-3(Fucα1-4)GlcNAcβ1-3Galβ1-4Glc, hereinafter referred to as “LNFP-II”), lacto-N-fucopentaose III (Galβ1-4(Fucα1-3)GlcNAcβ1-3Galβ1-4Glc, hereinafter referred to as “LNFP-III”), lacto-N-fucopentaose V (Galβ1-3GlcNAcβ1-3Galβ1-4(Fucα1-3)Glc, hereinafter referred to as “LNFP-V”) and lacto-N-difucohexaose II (Galβ1-3(Fucα1-4)GlcNAcβ1-3Galβ1-4(Fucα1-3)Glc, hereinafter referred to as “LNDFH-II”) (all manufactured by Oxford Glycosystems) were used after fluorescently labeling them with aminopyridine. Fluorescence labeling of these substrates were carried out in accordance with the usual method [Agric. Biol. Chem., 54, 2169 (1990)].
# (§2) For each substrate, the reaction was carried using the assay solution with or without UDP-GlcNAc (sugar donor), and then HPLC was carried out and peaks appeared only in the assay solution containing UDP-GlcNAc were defined as products.
# (§3) The assay solution after completion of the reaction was treated at 100° C. for 5 minutes and then centrifuged at 10,000×g for 5 minutes, and a portion (5 μl) of the thus obtained supernatant was applied to HPLC.
# (§4) The HPLC was carried out by using TSK-gel ODS-80Ts column (4.6×300 mm; Tosoh); 0.02 mol/l ammonium acetate buffer (pH 4.0) was used as the eluate at an elution temperature of 50° C. and at a flow rate of 0.5 ml/min.
# (§5) Products were detected by using a fluorescence spectrum photometer FP-920 (JASCO Corporation) (excitation wavelength 320 nm, radiation wavelength 400 nm).
# [2] = target: T2, β1,3-N-acetylglucosaminyl transferase (G3) (Homo sapiens, UniProt Q9NY97); experiment: Substrate specificity of G3 with pyridylaminated oligosaccharides; type: biochemical; details: pyridylaminated substrate, 37° C., 2 hours, activity on LNnT defined as 100%
# T2 construct: made in house; host or cells: Sf21 insect cells infected with recombinant baculovirus from pVL1393-F2G3
# T2 sequence (Q9NY97 31-397): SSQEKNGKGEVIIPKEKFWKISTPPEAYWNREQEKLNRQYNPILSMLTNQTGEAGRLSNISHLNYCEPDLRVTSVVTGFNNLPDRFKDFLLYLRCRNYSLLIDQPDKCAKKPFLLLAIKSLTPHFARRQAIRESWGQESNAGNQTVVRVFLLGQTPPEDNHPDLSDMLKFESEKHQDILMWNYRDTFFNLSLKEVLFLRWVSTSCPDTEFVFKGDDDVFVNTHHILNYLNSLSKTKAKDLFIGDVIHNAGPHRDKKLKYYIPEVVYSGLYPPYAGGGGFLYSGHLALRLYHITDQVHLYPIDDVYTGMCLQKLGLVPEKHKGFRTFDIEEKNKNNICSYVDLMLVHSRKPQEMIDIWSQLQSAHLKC
# Method: as §1, §2, §3, §4, §5
# Substrate specificity of a β1,3-N-acetylglucosaminyl transferase (G3) was examined using the FLAG peptide-fused G3 polypeptide purified in Example 14.
# Substrate specificity of the FLAG peptide-fused G3 polypeptide was examined by the method shown in Example 11(1). The reaction was carried out at 37° C. for 2 hours.
# [3] = target: T3, β1,3-N-acetylglucosaminyl transferase (G7) (Homo sapiens, UniProt Q9C0J1); experiment: Substrate specificity of G7 with pyridylaminated oligosaccharides; type: biochemical; details: pyridylaminated substrate, 37° C., 16 hours, activity for LNnT defined as 100%
# T3 construct: made in house; host or cells: Sf21 insect cells infected with recombinant baculovirus from pVL1393-F2G7
# T3 sequence (Q9C0J1 56-378): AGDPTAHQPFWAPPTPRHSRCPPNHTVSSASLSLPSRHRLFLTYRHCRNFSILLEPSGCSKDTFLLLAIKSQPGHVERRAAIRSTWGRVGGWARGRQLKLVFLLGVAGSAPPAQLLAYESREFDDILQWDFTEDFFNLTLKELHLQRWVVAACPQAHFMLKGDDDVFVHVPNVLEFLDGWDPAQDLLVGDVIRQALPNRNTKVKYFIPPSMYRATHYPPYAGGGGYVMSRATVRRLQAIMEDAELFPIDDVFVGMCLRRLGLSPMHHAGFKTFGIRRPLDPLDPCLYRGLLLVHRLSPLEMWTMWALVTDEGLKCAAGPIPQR
# Method: as §1, §2, §3, §4, §5
# Examination of the substrate specificity of a β1,3-N-acetylglucosaminyl transferase (G7) was carried out using the FLAG peptide-fused G7 polypeptide purified in Example 17.
# Substrate specificity of the FLAG peptide-fused G7 polypeptide was examined by the method shown in Example 11(1). The reaction was carried out at 37° C. for 16 hours.
# [4] = target: T2, β1,3-N-acetylglucosaminyl transferase (G3); experiment: Substrate specificity of G3 with unlabeled oligosaccharides; type: biochemical; details: unlabeled substrate, 37° C., 2 hours, activity for LNnT defined as 100%
# Method: (§6) The reaction using the glycosyltransferase was carried out as follows. The reaction was carried out at 37° C. for 16 hours in 40 μl of an assay solution [50 mmol/l MOPS (pH 7.5), 5 mmol/l UDP-GlcNAc (SIGMA), 5 mmol/l MnCl2, […] and 10 μl of the above eluate]. Next, the reaction solution was treated at 100° C. for 5 minutes and then centrifuged at 10,000×g for 20 minutes to obtain the supernatant, and a portion thereof was analyzed using HPAE/PAD (High Performance Anion Pulsed Amperometoric Detection; manufactured by DIONEX). The specific method was carried out in the usual way [Anal. Biochem., 189, 151 (1990), J. Biol. Chem., 273, 433 (1998)].
# (§7) As substrates, the following unlabeled oligosaccharides were used: lactose (Galβ1-4Glc), N-acetyllactosamine (Galβ1-4GlcNAc, hereinafter referred to as “LacNAc” in some cases), LNnT, LNT and lacto-N-neohexaose (Galβ1-4GlcNACβ1-3Galβ1-4GlcNAcβ1-3Galβ1-4Glc, hereinafter referred to as “LNnH”).
# as §2
# (§8) In identifying the product, coincidence of its elution time with that of a standard sugar chain was used as the index. As the standard sugar chains, GlcNAcβ1-3Galβ1-4Glc, GlcNAcβ1-3Galβ1-4GlcNAc and GlcNAcβ1-3Galβ1-4GlcNAcβ1-3Galβ1-4Glc were used.
# Substrate specificity of the FLAG peptide-fused G3 polypeptide was examined by the method shown in Example 11(2). The enzyme reaction was carried out at 37° C. for 2 hours.
# β3GnT = target: T4, β3GnT (Homo sapiens, UniProt Q9NY97); details: reported values, Proc. Natl. Acad. Sci. USA, 96, 406 (1999), cited from earlier work
# T4 sequence (Q9NY97 1-397): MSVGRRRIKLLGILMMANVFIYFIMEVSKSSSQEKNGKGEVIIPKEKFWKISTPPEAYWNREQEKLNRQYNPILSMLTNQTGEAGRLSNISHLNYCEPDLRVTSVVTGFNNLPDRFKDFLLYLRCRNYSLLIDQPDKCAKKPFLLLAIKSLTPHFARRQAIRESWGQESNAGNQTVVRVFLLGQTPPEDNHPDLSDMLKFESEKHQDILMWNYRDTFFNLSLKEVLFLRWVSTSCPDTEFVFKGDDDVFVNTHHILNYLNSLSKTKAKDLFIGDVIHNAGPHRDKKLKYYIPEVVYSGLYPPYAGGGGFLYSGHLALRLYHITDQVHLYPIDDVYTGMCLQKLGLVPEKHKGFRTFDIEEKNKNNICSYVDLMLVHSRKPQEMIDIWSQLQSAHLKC
# [5] = target: T1, β1,3-N-acetylglucosaminyl transferase (G4); experiment: Substrate specificity of G4 with unlabeled oligosaccharides (HPAE/PAD); type: biochemical; details: unlabeled substrate, 37° C., 16 hours, activity on LNnT defined as 100%
# Method: as §6, §7, §2, §8
# [6] = target: T3, β1,3-N-acetylglucosaminyl transferase (G7); experiment: Substrate specificity of G7 with unlabeled oligosaccharides; type: biochemical; details: unlabeled substrate, 37° C., 15.5 hours, activity for LNnT defined as 100%
# Method: as §6, §7, §2, §8
# Substrate specificity of the FLAG peptide-fused G7 polypeptide was examined using the method shown in Example 11(2). The enzyme reaction was carried out at 37° C. for 15.5 hours.
Relative activity (%) [1] [%],Relative activity (%) [2] [%],Relative activity (%) [3] [%],Relative activity (%) G3 [4] [%],Relative activity (%) [5] [%],Relative activity (%) G7 [6] [%],Molecule,Relative activity (%) β3GnT (β3GnT; Table 4) [%],Relative activity (%) β3GnT (β3GnT; Table 6) [%]
0,0,0,,,,"CC(=O)N[C@H]1[C@H](O[C@H]2[C@@H](O)[C@@H](CO)O[C@@H](O[C@@H]([C@H](O)[C@@H](O)C=O)[C@H](O)CO)[C@@H]2O)O[C@H](CO)[C@@H](O[C@@H]2O[C@@H](C)[C@@H](O)[C@@H](O)[C@@H]2O)[C@@H]1O[C@@H]1O[C@H](CO)[C@H](O)[C@H](O)[C@H]1O [LNFP-II, lacto-N-fucopentaose II]",,
4.7,0,7.4,,,,lacto-N-fucopentaose III [LNFP-III],,
,,,132,45,0.05,lacto-N-neohexaose [LNnH],,

# Further lines, the molecule ahead of its results:
Molecule,Relative activity (%) [1] [%],Relative activity (%) [2] [%],Relative activity (%) [3] [%],Relative activity (%) G3 [4] [%],Relative activity (%) [5] [%],Relative activity (%) G7 [6] [%],Relative activity (%) β3GnT (β3GnT; Table 4) [%],Relative activity (%) β3GnT (β3GnT; Table 6) [%]
"CC(=O)N[C@H]1[C@H](O[C@H]2[C@@H](O)[C@@H](CO)O[C@@H](O[C@@H]([C@H](O[C@@H]3O[C@@H](C)[C@@H](O)[C@@H](O)[C@@H]3O)[C@@H](O)C=O)[C@H](O)CO)[C@@H]2O)O[C@H](CO)[C@@H](O[C@@H]2O[C@@H](C)[C@@H](O)[C@@H](O)[C@@H]2O)[C@@H]1O[C@@H]1O[C@H](CO)[C@H](O)[C@H](O)[C@H]1O [LNDFH-II, lacto-N-difucohexaose II]",0,0,0,,,,,
"CC(=O)N[C@H]1C(O)O[C@H](CO)[C@@H](O[C@@H]2O[C@H](CO)[C@H](O)[C@H](O)[C@H]2O)[C@@H]1O (stereo partly shown) [LacNAc, N-acetyllactosamine]",,,,21,0,8.5,95.5,95.5
"OC[C@H]1O[C@@H](O[C@H]2[C@H](O)[C@@H](O)C(O)O[C@@H]2CO)[C@H](O)[C@@H](O)[C@H]1O (stereo partly shown) [Lactose, lactose]",,,,128,235,32.6,67.1,67.1
lacto-N-fucopentaose V [LNFP-V],65.1,30.8,8.1,,,,,
